Assay results taken from US20120258980A1, “Antibacterial Agent for Drug-Resistant Bacteria, Method for Screening for Same, and Use of Same” (priority 2009, published 2012).
Converted amounts (≈) assume the structure as drawn.

What was measured:
[1] = test system: MRSA, CA-MRSA and MSSA of Staphylococcus aureus; assay: MIC measurement, Test Example 4 (MRSA, CA-MRSA and MSSA strains); type: cell-based; details: Staphylococcus aureus
Experimental: (§1) Each of the bacterial strains listed in Table 1-1 was shake-cultured at 37° C. overnight in 4 mL of a medium (Tryptical Soy Broth: TSB, product of Becton Dickinson and Company). FDA209P was used as a control.
(§2) After completion of culturing, the resultant culture was suspended in a cation-adjusted Mueller Hinton Broth (CAMHB, product of Becton Dickinson and Company). Then, the obtained bacterial culture was adjusted in absorbance with the CAMHB so that the absorbance at 578 nm of the bacterial culture was adjusted to 0.3 measured by an absorption spectrometer. In addition, the resultant bacterial culture was 500-fold diluted with the CAMHB.
(§3) Each of the 500-fold diluted, pre-cultured bacterial cultures was added at 50 μL/well to the CAMHB containing the quinolones and the nybomycins at various concentrations (50 μL/well), followed by statically culturing at 37° C. overnight.
(§4) After completion of culturing, the growth of the bacteria was visually determined based on turbidity to measure MIC in each bacterial strain.
Glycopeptides, imipenem, quinolones and nybomycins were studied for antibacterial activity against the bacterial strains listed in Table 2-1; i.e., MRSA, CA-MRSA and MSSA of Staphylococcus aureus.

[2] = test system: VISA clinical isolates of MRSA (VI-MRSA) and of MSSA (VI-MSSA); assay: microbe, parasite or virus in culture; type: cell-based, Staphylococcus aureus
Experimental: as §1, §2, §3, §4
Here, the glycopeptides used were VCM and TEIC. The β-lactam used was OXA.

Cc1onc(-c2ccccc2)c1C(=O)N[C@@H]1C(=O)N2[C@@H]1SC(C)(C)[C@@H]2C(=O)O [OXA, oxacillin]
MIC ([1]; ATCC 29213 / MRSA / MSSA, ATCC 29213, MSSA): 0.25 µg/mL (≈ 0.623 µM)
MIC ([1]; COL, MRSA): > 16 µg/mL
MIC ([1]; FDA209P / MRSA / MSSA, FDA209P, MSSA): ≤ 0.063 µg/mL
MIC ([1]; ISA12-1, MRSA): 4 µg/mL (≈ 9.96 µM)
MIC ([1]; ISA12-2, MRSA): 4 µg/mL (≈ 9.96 µM)
MIC ([1]; ISA35-1, MRSA): 4 µg/mL (≈ 9.96 µM)
MIC ([1]; ISA37-1, MSSA): 2 µg/mL (≈ 4.98 µM)
MIC ([1]; ISA49-1, MSSA): 1 µg/mL (≈ 2.49 µM)
MIC ([1]; ISA51-1, MSSA): 1 µg/mL (≈ 2.49 µM)
MIC ([1]; ISA56-3, MRSA): 8 µg/mL (≈ 19.9 µM)
MIC ([1]; ISA58-1, MRSA): 4 µg/mL (≈ 9.96 µM)
MIC ([1]; ISA62-1, MRSA): 8 µg/mL (≈ 19.9 µM)
MIC ([1]; ISA73-1, MSSA): 1 µg/mL (≈ 2.49 µM)
MIC ([1]; KBSA32, MRSA): 8 µg/mL (≈ 19.9 µM)
MIC ([1]; KBSA34, MRSA): 16 µg/mL (≈ 39.9 µM)
MIC ([1]; KBSA72, MRSA): 128 µg/mL (≈ 319 µM)
MIC ([1]; KBSA96, MRSA): 128 µg/mL (≈ 319 µM)
MIC ([1]; KBSA171, MRSA): > 128 µg/mL
MIC ([1]; KSA24, MRSA): 128 µg/mL (≈ 319 µM)
MIC ([1]; KSA31, MRSA): 128 µg/mL (≈ 319 µM)
MIC ([1]; KSA36, MRSA): > 128 µg/mL
MIC ([1]; MRSA / MSSA / NCTC 8325, NCTC 8325, MSSA): 1 µg/mL (≈ 2.49 µM)
MIC ([1]; MRSA / MSSA / USA300, USA300 FPR3757, CA-MRSA): 16 µg/mL (≈ 39.9 µM)
MIC ([1]; MW2, CA-MRSA): 8 µg/mL (≈ 19.9 µM)
MIC ([1]; N315, MRSA): 32 µg/mL (≈ 79.7 µM)
MIC ([2]; Staphylococcus aureus, 99/3700-W, VI-MRSA, The United Kingdom): 512 µg/mL (≈ 1280 µM)
MIC ([2]; Staphylococcus aureus, 99/3759-V, VI-MRSA, The United Kingdom): 512 µg/mL (≈ 1280 µM)
MIC ([2]; Staphylococcus aureus, 28160, VI-MRSA, South African Republic): 32 µg/mL (≈ 79.7 µM)
MIC ([2]; Staphylococcus aureus, 98141, VI-MRSA, France): > 128 µg/mL
MIC ([2]; Staphylococcus aureus, A7 (JCSC4842), VI-MRSA, Taiwan): 128 µg/mL (≈ 319 µM)
MIC ([2]; Staphylococcus aureus, AMC11094, VI-MRSA, Korea): 512 µg/mL (≈ 1280 µM)
MIC ([2]; Staphylococcus aureus, B7 (JCSC4852), VI-MRSA, Taiwan): 128 µg/mL (≈ 319 µM)
MIC ([2]; Staphylococcus aureus, BR1, VI-MRSA, Brazil): 256 µg/mL (≈ 638 µM)
MIC ([2]; Staphylococcus aureus, BR2, VI-MRSA, Brazil): 64 µg/mL (≈ 159 µM)
MIC ([2]; Staphylococcus aureus, BR3, VI-MRSA, Brazil): 64 µg/mL (≈ 159 µM)
MIC ([2]; Staphylococcus aureus, BR4, VI-MRSA, Brazil): 512 µg/mL (≈ 1280 µM)
MIC ([2]; Staphylococcus aureus, BR5, VI-MRSA, Brazil): 512 µg/mL (≈ 1280 µM)
MIC ([2]; Staphylococcus aureus, HIP06297, VI-MRSA, America): 512 µg/mL (≈ 1280 µM)
MIC ([2]; Staphylococcus aureus, HIP06854, VI-MRSA, America): 128 µg/mL (≈ 319 µM)
MIC ([2]; Staphylococcus aureus, HIP07920, VI-MRSA, America): 128 µg/mL (≈ 319 µM)
MIC ([2]; Staphylococcus aureus, HIP07930, VI-MRSA, America): 32 µg/mL (≈ 79.7 µM)
MIC ([2]; Staphylococcus aureus, HIP08926, VI-MRSA, America): 512 µg/mL (≈ 1280 µM)
MIC ([2]; Staphylococcus aureus, HIP09143, VI-MRSA, America): 512 µg/mL (≈ 1280 µM)
MIC ([2]; Staphylococcus aureus, HIP09313, VI-MRSA, America): 512 µg/mL (≈ 1280 µM)
MIC ([2]; Staphylococcus aureus, HIP09433, VI-MRSA, America): 256 µg/mL (≈ 638 µM)
MIC ([2]; Staphylococcus aureus, HIP09662, VI-MRSA, America): 512 µg/mL (≈ 1280 µM)
MIC ([2]; Staphylococcus aureus, HIP09735, VI-MRSA, America): 512 µg/mL (≈ 1280 µM)
MIC ([2]; Staphylococcus aureus, HIP09737, VI-MSSA, America): 1 µg/mL (≈ 2.49 µM)
MIC ([2]; Staphylococcus aureus, HIP09740, VI-MRSA, America): 512 µg/mL (≈ 1280 µM)
MIC ([2]; Staphylococcus aureus, HIP10267, VI-MRSA, America): 4 µg/mL (≈ 9.96 µM)
MIC ([2]; Staphylococcus aureus, HIP10540, VI-MRSA, America): 64 µg/mL (≈ 159 µM)
MIC ([2]; Staphylococcus aureus, HIP12864, VI-MRSA, America): 1020 µg/mL (≈ 2550 µM)
MIC ([2]; Staphylococcus aureus, HIP13036, VI-MRSA, America): 32 µg/mL (≈ 79.7 µM)
MIC ([2]; Staphylococcus aureus, HIP13057, VI-MRSA, America): 4 µg/mL (≈ 9.96 µM)
MIC ([2]; Staphylococcus aureus, IL (HIP7737), VI-MRSA, America): 64 µg/mL (≈ 159 µM)
MIC ([2]; Staphylococcus aureus, JCSC7193, VI-MRSA, Thailand): > 128 µg/mL
MIC ([2]; Staphylococcus aureus, JCSC7195, VI-MRSA, Thailand): > 128 µg/mL
MIC ([2]; Staphylococcus aureus, JCSC7203, VI-MRSA, Thailand): 128 µg/mL (≈ 319 µM)
MIC ([2]; Staphylococcus aureus, LIM2, VI-MRSA, France): 32 µg/mL (≈ 79.7 µM)
MIC ([2]; Staphylococcus aureus, LY-1999-01, VI-MSSA, Oman): 1 µg/mL (≈ 2.49 µM)
MIC ([2]; Staphylococcus aureus, LY-1999-03, VI-MRSA, Oman): 1020 µg/mL (≈ 2550 µM)
MIC ([2]; Staphylococcus aureus, MI (HIP5827), VI-MRSA, America): 512 µg/mL (≈ 1280 µM)
MIC ([2]; Staphylococcus aureus, MRSA / MSSA / NRS 76 / VISA, NRS76, VI-MSSA, America): 1 µg/mL (≈ 2.49 µM)
MIC ([2]; Staphylococcus aureus, MRSA / MSSA / NRS 79 / VISA, NRS79, VI-MRSA, America): 256 µg/mL (≈ 638 µM)
MIC ([2]; Staphylococcus aureus, MRSA / MSSA / NRS 118 / VISA, NRS118, VI-MRSA, America): 1020 µg/mL (≈ 2550 µM)
MIC ([2]; Staphylococcus aureus, MRSA / MSSA / NRS 126 / VISA, NRS126, VI-MRSA, America): 256 µg/mL (≈ 638 µM)
MIC ([2]; Staphylococcus aureus, Mu3, VI-MRSA, Japan): 512 µg/mL (≈ 1280 µM)
MIC ([2]; Staphylococcus aureus, Mu50, VI-MRSA, Japan): 512 µg/mL (≈ 1280 µM)
MIC ([2]; Staphylococcus aureus, NJ (HIP5836), VI-MRSA, America): 64 µg/mL (≈ 159 µM)
MIC ([2]; Staphylococcus aureus, P1V44, VI-MSSA, Belgium): 2 µg/mL (≈ 4.98 µM)
MIC ([2]; Staphylococcus aureus, PC, VI-MRSA, America): 4 µg/mL (≈ 9.96 µM)
MIC ([2]; Staphylococcus aureus, SA MER-S6, VI-MSSA, France): 1 µg/mL (≈ 2.49 µM)
MIC ([2]; Staphylococcus aureus, SA MER-S12, VI-MSSA, France): 1 µg/mL (≈ 2.49 µM)
MIC ([2]; Staphylococcus aureus, SA MER-S20, VI-MSSA, France): 1 µg/mL (≈ 2.49 µM)
